# Measurements reported in US5872104A, “Combinations and methods for reducing antimicrobial resistance” (Oridigm Corporation, priority 1994, dated 1999).
# Structures can show the parent of a compound that is named as a salt. Where two headings read alike, the source gives them in different places.
# What was measured:
# rRNA of S. cerevisiae = settings: cited from earlier work
# [1] = test system: mature rRNA in Novikoff hepatoma cells; settings: cited from earlier work
# [2] = test system: S-Adenosylmethionine Decarboxylase (SAM-DC); settings: cited from earlier work
# Trypanosomiasis = settings: cited from earlier work
# [3] = test system: ornithine decarboxylase (ODC); settings: cited from earlier work
# [4] = test system: tRNA methylases isolated from E. coli; settings: cited from earlier work
# SAH in hepatocytes = settings: cited from earlier work
# Mycoplasma pneumoniae [5] = settings: cited from earlier work
# Ureaplasma urealyticum = settings: cited from earlier work
# Mycoplasma hominis = settings: cited from earlier work
# Staphylococcus aureus = settings: cited from earlier work
# Dictyostelium discoideum = settings: 5 mM, four hours; cited from earlier work
# tRNA methylases = settings: cited from earlier work
# RNA methylation = settings: cited from earlier work
# glutathione = settings: ip.; 4.5 mmol/kg buthionine sulfoximine and […] diethyl maleate; cited from earlier work
# [6] = test system: methylation reactions in peripheral blood monocytes; settings: cited from earlier work
# [7] = test system: E. coli glutathione synthetase; settings: cited from earlier work
# [8] = test system: Coagulase-negative staphylococci, methicillin resistant; settings: cited from earlier work
# [9] = test system: Staphylococcus aureus, methicillin resistant; settings: cited from earlier work
# Neisseria gonorrhoeae = settings: in µg/mL; cited from earlier work
# Chlamydia trachomatis = settings: in µg/mL; cited from earlier work
# Pasteurella multocida = settings: cited from earlier work
# [10] = test system: Gram-positive cocci (peptococcus, peptostreptococcus); settings: anaerobes; cited from earlier work
# Streptococcus bovis = settings: cited from earlier work
# Campylobacter species = settings: in µg/mL; cited from earlier work
# Clostridium perfringens = settings: anaerobes; in µg/mL; cited from earlier work
# Legionella pneumophila = settings: in µg/mL; cited from earlier work
# [11] = test system: E. faecalis (Erythromycin susceptible); settings: cited from earlier work
# Streptococcus pneumoniae = settings: in µg/mL; cited from earlier work
# [12] = test system: Staphylococcus aureus, methicillin susceptible; settings: in µg/mL; cited from earlier work
# Bacteroides fragilis = settings: anaerobes; in µg/mL; cited from earlier work
# [13] = test system: E. faecalis (Erythromycin resistant); settings: cited from earlier work
# Moraxella catarrhalis = settings: in µg/mL; cited from earlier work
# Bordetella pertussis = settings: in µg/mL; cited from earlier work
# Mycoplasma pneumoniae [14] = settings: in µg/mL; cited from earlier work
# [15] = test system: Streptococcus pyogenes (group A), erythromycin susceptible; settings: cited from earlier work
# [16] = cited from earlier work
# Viridans streptococci = settings: cited from earlier work
# N. meningitidis = settings: in µg/mL; cited from earlier work
# Haemophilus influenzae = settings: in µg/mL; cited from earlier work
# Listeria monocytogenes = settings: in µg/mL; cited from earlier work
# arginine decarboxylase = settings: cited from earlier work
# adenosine deaminase = settings: cited from earlier work
# lysosomal ADA = settings: 0.2 mM; cited from earlier work
# [17] = test system: 28S rRNA, 18S rRNA and tRNA; settings: NPA 10 μM; c^3 -NPA 10 μM; c^3 -Ari 100 μM; cited from earlier work
# SAHH hydrolase = settings: cited from earlier work
# bovine liver SAHH = settings: 0.2 mM; cited from earlier work
# [18] = test system: S. aureus 27660 (erythromycin resistant); type: cell-based; settings: inhibitor pre-mixed with BHIA or TSA, with erythromycin (FIG. 3)
# [19] = test system: S. aureus 6538 (erythromycin susceptible); assay: Erythromycin disk susceptibility with inhibitor pre-mixed in agar; type: cell-based; settings: inhibitor pre-mixed with BHIA or TSA, with erythromycin (FIG. 2)
# [20] = test system: S. aureus 27660 (erythromycin resistant); assay: Erythromycin disc susceptibility after pre-incubation with inhibitor discs (second procedure); settings: 310 μg/disc, pre-incubation 0-5 hours, 18 hours incubation (FIG. 4)
# SAM synthetase = settings: cited from earlier work
smiles,measurement,setting,value
N#Cc1cn([C@@H]2O[C@H](CO)[C@@H](O)[C@H]2O)c2ncnc(N)c12 [toyocamycin],maturation of rRNA,rRNA of S. cerevisiae,inhibit the maturation of rRNA
same,formation of mature rRNA,[1],inhibit the formation of mature 28S and 18
"CN(C/C=C\CN)C[C@H]1O[C@@H](n2cnc3c(N)ncnc32)[C@H](O)[C@@H]1O [AbeAdo, 5'-{[(Z)-4-amino-2-butenyl]methylamino}-5'-deoxyadenosine]",SAM-DC inhibition,[2],powerful irreversible inhibitors of SAM-DC
"NCCCC(N)(C(=O)O)C(F)F (stereo not drawn) [DFMO, difluoromethylornithine]",clinical effectiveness,Trypanosomiasis; different dosage levels and modes of treatment,effective against Trypanosomiasis
same,safety,"Trypanosomiasis; human, in vivo",safe and well tolerated and the side effects are reversible
same,ODC inhibition,[3],irreversible inhibitor of ornithine decarboxylase
Nc1ncnc2c1ncn2[C@@H]1O[C@H](CO)[C@@H](O)[C@H]1O [adenosine],inhibition of E. coli tRNA methylases,[4],inhibitory to tRNA methylases isolated from E. coli
Nc1ncnc2c1ncn2C[C@H](O)[C@@H](O)C(=O)O [L-threo-eritadenine],inactivation of SAH,SAH in hepatocytes,inactivate SAH in hepatocytes
CCC[C@@H]1C[C@@H](C(=O)N[C@@H]([C@H]2O[C@H](SC)[C@H](O)[C@@H](O)[C@H]2O)[C@@H](C)O)N(C)C1 [Lincomycin],MIC50,Mycoplasma pneumoniae [5],8 µg/mL
same,MIC90,Mycoplasma pneumoniae [5],32 µg/mL
same,Range,Mycoplasma pneumoniae [5],2-32
same,MIC50,Ureaplasma urealyticum,≥ 128 µg/mL
same,MIC90,Ureaplasma urealyticum,≥ 128 µg/mL
same,MIC50,Mycoplasma hominis,2 µg/mL
same,MIC90,Mycoplasma hominis,4 µg/mL
same,Range,Mycoplasma hominis,0.5-16
same,MIC50,Staphylococcus aureus,1 µg/mL
same,MIC90,Staphylococcus aureus,1 µg/mL
same,Range,Staphylococcus aureus,0.5-512
C[C@](N)(CCCN)C(=O)O [α-methylornithine],growth of D. discoideum,Dictyostelium discoideum,arrested in four hours
Nc1ncnc2nc[nH]c12 [adenine],inhibition of E. coli tRNA methylases,[4],inhibitory to tRNA methylases isolated from E. coli
same,inhibition of tRNA methylases,tRNA methylases,gave inhibition that would be acceptable
Nc1nc2c(ncn2[C@@H]2O[C@H](CO)[C@@H](O)[C@H]2O)c(=S)[nH]1 [6-thioguanosine],formation of mature rRNA,[1],inhibit the formation of mature 28S and 18
COC(=O)C(N)(C=CCN)CF (racemic) [DL-α-monofluoromethyldehydroornithine methylester],Ki,[3],3000 nM
"Nc1ncnc2c1ncn2[C@@H]1O[C@H](CO)[C@H](O)[C@H]1O [xylosyladenine, 9-B-D-xylofuranosyladenine]",DNA methylation,RNA methylation,not inhibited
same,"formation of methyluridine, 2'-O-methylcytidine, 5-methyluridine and 5-methylcytidine in RNA",RNA methylation,reduced
same,inhibition of RNA methylation,RNA methylation,marked inhibition of RNA methylation
CCOC(=O)/C=C\C(=O)OCC [diethyl maleate],depletion of glutathione,glutathione,depleted liver and aortic glutathione
"CN(CCCNN)C[C@H]1O[C@@H](n2cnc3c(N)ncnc32)[C@H](O)[C@@H]1O [MHZPA, 5'-deoxy-5'-[(3-hydrazinopropyl)methylamino]adenosine]",SAM-DC inhibition,[2],powerful irreversible inhibitors of SAM-DC
CN(Cc1cnc2nc(N)nc(N)c2n1)c1ccc(C(=O)N[C@@H](CCC(=O)O)C(=O)O)cc1 [Methotrexate],SAH metabolism,[6]; cultured cells and patients,affects SAH metabolism
same,methylation reactions,"[6]; low concentrations, in vitro",interfere with specific methylation reactions
same,inhibition,[7],potently inhibited
Nc1ncnc2c1ncn2C[C@@H](O)[C@@H](O)C(=O)O [D-eritadine],inactivation of SAH,SAH in hepatocytes,inactivate SAH in hepatocytes
CC[C@H]1OC(=O)[C@H](C)[C@@H](O[C@H]2C[C@@](C)(OC)[C@@H](O)[C@H](C)O2)[C@H](C)[C@@H](O[C@@H]2O[C@H](C)C[C@H](N(C)C)[C@H]2O)[C@](C)(O)C[C@@H](C)CN(C)[C@H](C)[C@@H](O)[C@]1(C)O [Azithromycin],MIC90,[8],> 128 µg/mL
same,MIC90,[9],> 128 µg/mL
same,MIC90,Neisseria gonorrhoeae,0.15
same,MIC90,Chlamydia trachomatis,0.12-0.25
same,MIC90,Pasteurella multocida,0.5 µg/mL
same,MIC90,[10],2 µg/mL
same,MIC90,Streptococcus bovis,0.25 µg/mL
same,MIC90,Campylobacter species,0.25
same,MIC90,Clostridium perfringens,1.0
same,MIC90,Legionella pneumophila,0.25-2.0
same,MIC90,[11],8 µg/mL
same,MIC90,Streptococcus pneumoniae,0.12
same,MIC90,[12],1.0
same,MIC90,Bacteroides fragilis,8.0
same,MIC90,[13],> 64 µg/mL
same,MIC90,Moraxella catarrhalis,0.5
same,MIC90,Bordetella pertussis,0.12
same,MIC90,Mycoplasma pneumoniae [14],0.001
same,MIC90,[15],0.12 µg/mL
same,tissue half-life,[16],prolonged tissue half-life
same,MIC90,Viridans streptococci,16 µg/mL
same,MIC90,N. meningitidis,0.12
same,MIC90,Haemophilus influenzae,1.0
same,MIC90,Listeria monocytogenes,4.0
"N=C(N)NCCCC(N)(C(=O)O)C(F)F (racemic) [DFMA, difluoromethylarginine]",arginine decarboxylase inhibition,arginine decarboxylase,irreversible inhibitor of ADC
same,arginine decarboxylase inhibition,arginine decarboxylase; listed as DL-α-(difluoromethyl)arginine,potent and irreversible inhibitor of bacterial ADC
Nc1ncnc2c1ncn2C[C@H](O)[C@H](O)C(=O)O [L-eritadenine],inactivation of SAH,SAH in hepatocytes,inactivate SAH in hepatocytes
CCCCCC[C@H]([C@H](C)O)n1cnc2c(N)ncnc21 (relative stereo) [erythro-9-(2-hydroxy-3-nonyl)adenine],ADA inhibition,adenosine deaminase,inhibitors of ADA
same,inhibition of lysosomal ADA,lysosomal ADA,> 97%
"NCC(O)CN [1,3-diaminopropan-2-ol]",growth of D. discoideum,Dictyostelium discoideum,arrested in four hours
"Nc1nccc2c1ncn2[C@@H]1C[C@H](CO)[C@@H](O)[C@H]1O [c^3 -Ari, 3-deazaaristeromycin]","methylation of 28S rRNA, 18S rRNA and tRNA",[17],"inhibit the methylation of 28S rRNA, 18S rRNA and tRNA"
same,antiviral activity and cytotoxicity vs first generation,SAHH hydrolase,retained antiviral activity and considerably lower cytotoxicity than their parent first generation inhibitors
same,inhibition,bovine liver SAHH,97%
CNc1ncnc2c1ncn2[C@@H]1C[C@H](CO)[C@@H](O)[C@H]1O [N^6 -methylaristeromycin],inhibition,bovine liver SAHH,22%
COc1cc(Cc2cnc(N)nc2N)cc(OC)c1OC [trimethoprim],inhibition,[7],potently inhibited
CCSCC[C@H](N)C(=O)O [Ethionine],increase in the size of the clear zone,[18],increase in the size of the clear zone
same,increase in the size of the clear zone,[19],increase in the size of the clear zone
same,increase in clear zones relative to erythromycin alone,[20],Increases in clear zones were observed
Nc1ncnc2c1ncn2[C@@H]1O[C@H](COP(=O)(O)NP(=O)(O)OP(=O)(O)O)[C@@H](O)[C@H]1O [AMPNPP],"effectiveness, fold versus AMPCPP",SAM synthetase,about 1000 fold
same,"inhibition constant, fold less than the Km of ATP",SAM synthetase,60 fold
same,substrate and inhibitor of SAM synthetase,SAM synthetase,both a substrate for SAM synthetase and a potent inhibitor
Nc1ncnc2c1nnn2[C@@H]1C[C@H](CO)[C@@H](O)[C@H]1O [8-azaaristeromycin],inhibition,bovine liver SAHH,46%
